From article PMC3681751, “Identification of a Novel Antimicrobial Peptide from Human Hepatitis B Virus Core Protein Arginine-Rich Domain (ARD)” (PLoS Pathogens, 2013)
Where two headings read alike, the source gives them in different places. Residues, ends and D or L forms follow the SMILES beside them.

How the values were obtained:
E. coli (ATCC 25922) = type: cell-based, Escherichia coli
Procedure: (§1) The antimicrobial activities of HBc ARD peptides were tested using a number of bacterial strains from ATCC, including Pseudomonas aeruginosa Migula strain (ATCC 27853, ampicillin-resistant), Pseudomonas aeruginosa Migula strain (ATCC 9027, ampicillin-resistant), Klebsiella pneumoniae strain (ATCC 17593), Escherichia coli strain (ATCC 25922), Staphylococcus aureus subsp. strain (ATCC 25923, methicillin-resistant), Staphylococcus aureus subsp. strain (ATCC 29213, methicillin-resistant), Staphylococcus aureus subsp. strain (ATCC 19636, methicillinresistant), and Candida albicans strain (ATCC 10231).
(§2) All peptides were purchased from Yao-Hong Biotechnology Inc. (Taipei, Taiwan). Vendors provided data of peptide characterizations, including HPLC and Mass (data not shown). Antimicrobial activity was determined as described with some modifications as detailed below. Bacteria were grown overnight in Mueller–Hinton broth (Difco) at 37°C, and during the mid-logarithmic phase, bacteria were diluted to 10^6 CFU (colony formation unit)/ml in phosphate buffer (10 mM sodium phosphate and 50 mM sodium chloride, pH 7.2). Peptides were serially diluted in the same buffer. Fifty microliter (µl) of bacteria was mixed with fifty µl of peptides at varying concentrations followed by incubation at 37°C for 3 hours without shaking. At the end of incubation, bacteria were placed on Mueller-Hinton broth agar plates, and allowed growth at 37°C overnight for measurement of minimal bactericidal concentration (MBC). […] All peptides were tested in triplicate.

[1] = test system: K. pneumonia (ATCC 13884); type: cell-based, Klebsiella pneumoniae
[2] = test system: P. aeruginosa (ATCC 9027); type: cell-based, Pseudomonas aeruginosa; details: for MBC against P. aeruginosa: summary over the P. aeruginosa strains of Table 1 (ATCC 9027, ATCC 27853)
Procedure: as §1, §2

[3] = test system: P. aeruginosa (ATCC 27853); type: cell-based, Pseudomonas aeruginosa
Procedure: as §1, §2

S. aureus (ATCC 29213) = type: cell-based, Staphylococcus aureus
Procedure: as §1, §2

S. aureus (ATCC 19636) = type: cell-based, Staphylococcus aureus
Procedure: as §1, §2

S. aureus (ATCC 25923) = type: cell-based, Staphylococcus aureus
Procedure: as §1, §2

[4] = test system: tested bacteria and fungi; type: cell-based; details: summary of Table 1
Procedure: as §1, §2

[5] = 3 h at 37°C in phosphate buffer pH 7.2, triplicate
[6] = ampicillin-resistant strain, 3 h at 37°C in phosphate buffer pH 7.2, triplicate
[7] = methicillin-resistant strain, 3 h at 37°C in phosphate buffer pH 7.2, triplicate

Compound: CC(C)[C@H](NC(=O)[C@@H](NC(=O)[C@@H](N)[C@@H](C)O)C(C)C)C(=O)N[C@@H](CCCNC(=N)N)C(=O)N[C@@H](CCCNC(=N)N)C(=O)N[C@@H](CCCNC(=N)N)C(=O)NCC(=O)N[C@@H](CCCNC(=N)N)C(=O)N[C@@H](CO)C(=O)N1CCC[C@H]1C(=O)N[C@@H](CCCNC(=N)N)C(=O)N[C@@H](CCCNC(=N)N)C(=O)N[C@@H](CCCNC(=N)N)C(=O)N[C@H](C(=O)N1CCC[C@H]1C(=O)N[C@@H](CO)C(=O)N1CCC[C@H]1C(=O)N[C@@H](CCCNC(=N)N)C(=O)N[C@@H](CCCNC(=N)N)C(=O)N[C@@H](CCCNC(=N)N)C(=O)N[C@@H](CCCNC(=N)N)C(=O)O)[C@@H](C)O [HBc147-167] (H-TVVRRRGRSPRRRTPSPRRRR-OH; N-terminus and C-terminus assumed)
- Antimicrobial activity, MBC (E. coli (ATCC 25922); [5]): > 85 µg/mL
- Antimicrobial activity, MBC [1, 5]: 21.3 µg/mL
- Antimicrobial activity, MBC ([2]; ATCC 9027, 3 h, pH 7.2): > 32 µM
- Antimicrobial activity, MBC [2, 6]: > 85 µg/mL
- Antimicrobial activity, MBC ([3]; ATCC 27853, 3 h, pH 7.2): > 32 µM
- Antimicrobial activity, MBC [3, 6]: > 85 µg/mL

Compound: CC(C)[C@H](NC(=O)[C@@H](NC(=O)[C@@H](N)[C@@H](C)O)C(C)C)C(=O)N[C@@H](CCCNC(=N)N)C(=O)N[C@@H](CCCNC(=N)N)C(=O)N[C@@H](CCCNC(=N)N)C(=O)NCC(=O)N[C@@H](CCCNC(=N)N)C(=O)N[C@@H](CO)C(=O)N1CCC[C@H]1C(=O)N[C@@H](CCCNC(=N)N)C(=O)N[C@@H](CCCNC(=N)N)C(=O)N[C@@H](CCCNC(=N)N)C(=O)N[C@H](C(=O)N1CCC[C@H]1C(=O)N[C@@H](CO)C(=O)N1CCC[C@H]1C(=O)N[C@@H](CCCNC(=N)N)C(=O)N[C@@H](CCCNC(=N)N)C(=O)N[C@@H](CCCNC(=N)N)C(=O)N[C@@H](CCCNC(=N)N)C(=O)N[C@@H](CO)C(=O)N[C@@H](CCC(N)=O)C(=O)N[C@@H](CO)C(=O)N1CCC[C@H]1C(=O)N[C@@H](CCCNC(=N)N)C(=O)N[C@@H](CCCNC(=N)N)C(=O)N[C@@H](CCCNC(=N)N)C(=O)N[C@@H](CCCNC(=N)N)C(=O)O)[C@@H](C)O [HBc147-175] (H-TVVRRRGRSPRRRTPSPRRRRSQSPRRRR-OH; N-terminus and C-terminus assumed)
- Antimicrobial activity, MBC (E. coli (ATCC 25922); [5]): 3.68 µg/mL
- Antimicrobial activity, MBC (E. coli (ATCC 25922); ATCC 25922, 3 h, pH 7.2): 1 µM
- Antimicrobial activity, MBC [1, 5]: 3.68 µg/mL
- Antimicrobial activity, MBC ([1]; ATCC 13884, 3 h, pH 7.2): 1 µM
- Antimicrobial activity, MBC ([2]; ATCC 9027, 3 h, pH 7.2): 0.5 µM
- Antimicrobial activity, MBC [2, 6]: 1.84 µg/mL
- Antimicrobial activity, MBC ([3]; ATCC 27853, 3 h, pH 7.2): 1 µM
- Antimicrobial activity, MBC [3, 6]: 3.68 µg/mL
- Antimicrobial activity, MBC (S. aureus (ATCC 29213); ATCC 29213, 3 h, pH 7.2): > 32 µM
- Antimicrobial activity, MBC (S. aureus (ATCC 29213); [7]): > 117.86 µg/mL
- Antimicrobial activity, MBC (S. aureus (ATCC 19636); ATCC 19636, 3 h, pH 7.2): > 32 µM
- Antimicrobial activity, MBC (S. aureus (ATCC 19636); [7]): > 117.86 µg/mL
- MBC against S. aureus (S. aureus (ATCC 19636); text summary over the S. aureus strains of Table 1 (ATCC 19636, 25923, 29213)): lost the activity
- Antimicrobial activity, MBC (S. aureus (ATCC 25923); ATCC 25923, 3 h, pH 7.2): > 32 µM
- Antimicrobial activity, MBC (S. aureus (ATCC 25923); [7]): > 117.86 µg/mL

Compound: C[C@@H](O)[C@H](NC(=O)[C@H](CCCNC(=N)N)NC(=O)[C@H](CCCNC(=N)N)NC(=O)[C@H](CCCNC(=N)N)NC(=O)[C@@H]1CCCN1C(=O)[C@H](CO)NC(=O)[C@H](CCCNC(=N)N)NC(=O)CN)C(=O)N1CCC[C@H]1C(=O)N[C@@H](CO)C(=O)N1CCC[C@H]1C(=O)N[C@@H](CCCNC(=N)N)C(=O)N[C@@H](CCCNC(=N)N)C(=O)N[C@@H](CCCNC(=N)N)C(=O)N[C@@H](CCCNC(=N)N)C(=O)N[C@@H](CO)C(=O)N[C@@H](CCC(N)=O)C(=O)N[C@@H](CO)C(=O)N1CCC[C@H]1C(=O)N[C@@H](CCCNC(=N)N)C(=O)N[C@@H](CCCNC(=N)N)C(=O)N[C@@H](CCCNC(=N)N)C(=O)N[C@@H](CCCNC(=N)N)C(=O)O [HBc153-175] (H-GRSPRRRTPSPRRRRSQSPRRRR-OH; N-terminus and C-terminus assumed)
- Antimicrobial activity, MBC (E. coli (ATCC 25922); [5]): 46.64 µg/mL
- Antimicrobial activity, MBC [1, 5]: 93.28 µg/mL
- Antimicrobial activity, MBC ([1]; ATCC 13884, 3 h, pH 7.2): > 32 µM
- Antimicrobial activity, MBC ([2]; ATCC 9027, 3 h, pH 7.2): 2 µM
- Antimicrobial activity, MBC [2, 6]: 5.8 µg/mL
- MBC against P. aeruginosa [2]: strong activity
- Antimicrobial activity, MBC ([3]; ATCC 27853, 3 h, pH 7.2): 2 µM
- Antimicrobial activity, MBC [3, 6]: 5.8 µg/mL

Compound: C[C@@H](O)[C@H](NC(=O)[C@H](CCCNC(=N)N)NC(=O)[C@H](CCCNC(=N)N)NC(=O)[C@H](CCCNC(=N)N)NC(=O)[C@@H]1CCCN1C(=O)[C@@H](N)CO)C(=O)N1CCC[C@H]1C(=O)N[C@@H](CO)C(=O)N1CCC[C@H]1C(=O)N[C@@H](CCCNC(=N)N)C(=O)N[C@@H](CCCNC(=N)N)C(=O)N[C@@H](CCCNC(=N)N)C(=O)N[C@@H](CCCNC(=N)N)C(=O)N[C@@H](CO)C(=O)N[C@@H](CCC(N)=O)C(=O)N[C@@H](CO)C(=O)N1CCC[C@H]1C(=O)N[C@@H](CCCNC(=N)N)C(=O)N[C@@H](CCCNC(=N)N)C(=O)N[C@@H](CCCNC(=N)N)C(=O)N[C@@H](CCCNC(=N)N)C(=O)O [HBc155-175] (H-SPRRRTPSPRRRRSQSPRRRR-OH; N-terminus and C-terminus assumed)
- Antimicrobial activity, MBC (E. coli (ATCC 25922); [5]): > 86.46 µg/mL
- Antimicrobial activity, MBC [1, 5]: > 86.46 µg/mL
- Antimicrobial activity, MBC ([1]; ATCC 13884, 3 h, pH 7.2): > 32 µM
- Antimicrobial activity, MBC ([2]; ATCC 9027, 3 h, pH 7.2): 2 µM
- Antimicrobial activity, MBC [2, 6]: 5.4 µg/mL
- MBC against P. aeruginosa [2]: strong activity
- Antimicrobial activity, MBC ([3]; ATCC 27853, 3 h, pH 7.2): 16 µM
- Antimicrobial activity, MBC [3, 6]: 43.23 µg/mL

Compound: C[C@@H](O)[C@H](NC(=O)[C@H](CCCNC(=N)N)NC(=O)[C@H](CCCNC(=N)N)NC(=O)[C@@H](N)CCCNC(=N)N)C(=O)N1CCC[C@H]1C(=O)N[C@@H](CO)C(=O)N1CCC[C@H]1C(=O)N[C@@H](CCCNC(=N)N)C(=O)N[C@@H](CCCNC(=N)N)C(=O)N[C@@H](CCCNC(=N)N)C(=O)N[C@@H](CCCNC(=N)N)C(=O)N[C@@H](CO)C(=O)N[C@@H](CCC(N)=O)C(=O)N[C@@H](CO)C(=O)N1CCC[C@H]1C(=O)N[C@@H](CCCNC(=N)N)C(=O)N[C@@H](CCCNC(=N)N)C(=O)N[C@@H](CCCNC(=N)N)C(=O)N[C@@H](CCCNC(=N)N)C(=O)O [HBc157-175] (H-RRRTPSPRRRRSQSPRRRR-OH; N-terminus and C-terminus assumed)
- Antimicrobial activity, MBC (E. coli (ATCC 25922); [5]): > 80.58 µg/mL
- Antimicrobial activity, MBC [1, 5]: > 80.58 µg/mL
- Antimicrobial activity, MBC ([1]; ATCC 13884, 3 h, pH 7.2): > 32 µM
- Antimicrobial activity, MBC ([2]; ATCC 9027, 3 h, pH 7.2): 2 µM
- MBC against P. aeruginosa [2]: strong activity
- Antimicrobial activity, MBC ([3]; ATCC 27853, 3 h, pH 7.2): > 32 µM
- Antimicrobial activity, MBC [3, 6]: > 80.58 µg/mL

Compound: C[C@@H](O)[C@H](NC(=O)[C@H](CCCNC(=N)N)NC(=O)[C@H](CCCNC(=N)N)NC(=O)[C@@H](N)CCCNC(=N)N)C(=O)N1CCC[C@H]1C(=O)N[C@@H](CO)C(=O)N1CCC[C@H]1C(=O)N[C@@H](CCCNC(=N)N)C(=O)N[C@@H](CCCNC(=N)N)C(=O)N[C@@H](CCCNC(=N)N)C(=O)N[C@@H](CCCNC(=N)N)C(=O)N[C@@H](CO)C(=O)N[C@@H](CCC(N)=O)C(=O)N[C@@H](CO)C(=O)N1CCC[C@H]1C(=O)N[C@@H](CCCNC(=N)N)C(=O)N[C@@H](CCCNC(=N)N)C(=O)N[C@@H](CCCNC(=N)N)C(=O)N[C@@H](CCCNC(=N)N)C(=O)N[C@@H](CO)C(=O)O [HBc157-176] (H-RRRTPSPRRRRSQSPRRRRS-OH; N-terminus and C-terminus assumed)
- Antimicrobial activity, MBC (E. coli (ATCC 25922); [5]): > 83.36 µg/mL
- Antimicrobial activity, MBC [1, 5]: > 83.36 µg/mL
- Antimicrobial activity, MBC ([1]; ATCC 13884, 3 h, pH 7.2): > 32 µM
- Antimicrobial activity, MBC ([2]; ATCC 9027, 3 h, pH 7.2): 2 µM
- Antimicrobial activity, MBC [2, 6]: 5.2 µg/mL
- MBC against P. aeruginosa [2]: strong activity
- Antimicrobial activity, MBC ([3]; ATCC 27853, 3 h, pH 7.2): 2 µM
- Antimicrobial activity, MBC [3, 6]: 5.2 µg/mL

Compound: HBc147-159: HBc ARD peptide ARD I–II (TVVRRRGRSPRRR; UniProt P03147 147-159, looked up, fragment)
- Activity against all of the tested bacteria and fungi [4]: no activity

Compound: HBc162-175: HBc ARD peptide ARD III–IV (SPRRRRSQSPRRRR; UniProt P03147 162-175, looked up, fragment)
- Activity against all of the tested bacteria and fungi [4]: no activity

Compound: HBc164-176: HBc ARD peptide ARD III–IV (RRRRSQSPRRRRS; UniProt P03147 164-176, looked up, fragment)
- Activity against all of the tested bacteria and fungi [4]: no activity
